Assay results from ChEMBL document CHEMBL1201862, “PubChem BioAssay data set” (2004).
Active and inactive are the calls of the source.

Experiments:
Beta-galactosidase = Beta-galactosidase (Escherichia coli, UniProt Q8VNN2); assay: PubChem AID 485352; assay type: functional
[1] = molecular target: T1, Type-1 angiotensin II receptor (Homo sapiens, UniProt P30556); assay: AT1 receptor antagonists, dose response, selectivity assay for APJ receptor antagonist project, cell-based, uHTS hits (AID 463214); assay type: functional;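 also: antagonist potency against angiotensin II stimulated AT1 response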
T1 sequence (P30556 whole entry): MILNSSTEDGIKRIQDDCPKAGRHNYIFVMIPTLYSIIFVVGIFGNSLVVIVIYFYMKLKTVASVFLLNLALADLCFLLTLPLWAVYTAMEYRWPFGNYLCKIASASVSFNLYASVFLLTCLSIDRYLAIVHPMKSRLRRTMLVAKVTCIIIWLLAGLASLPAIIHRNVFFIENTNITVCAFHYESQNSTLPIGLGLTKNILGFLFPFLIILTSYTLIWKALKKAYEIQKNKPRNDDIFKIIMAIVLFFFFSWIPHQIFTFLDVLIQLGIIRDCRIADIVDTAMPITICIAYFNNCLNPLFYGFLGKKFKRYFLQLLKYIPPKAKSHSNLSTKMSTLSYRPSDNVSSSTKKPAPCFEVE

[2] = molecular target: Heat shock protein HSP 90-alpha (Homo sapiens, UniProt P07900); assay type: functional, organism-based
[3] = molecular target: T2, Oxysterols receptor LXR-beta (Homo sapiens, UniProt P55055); assay type: functional, cell-based;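 also: agonist activity at LXR measured by a cell-based luminescence readout across a dose range, run as a counterscreen for daf-12 agonists; HEK293 cells with Gal4-LXR fusion and GAL4-driven luciferase reporter; potency for activation of Gal4-LXR reporter so compounds are agonists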
T2 sequence (P55055 whole entry): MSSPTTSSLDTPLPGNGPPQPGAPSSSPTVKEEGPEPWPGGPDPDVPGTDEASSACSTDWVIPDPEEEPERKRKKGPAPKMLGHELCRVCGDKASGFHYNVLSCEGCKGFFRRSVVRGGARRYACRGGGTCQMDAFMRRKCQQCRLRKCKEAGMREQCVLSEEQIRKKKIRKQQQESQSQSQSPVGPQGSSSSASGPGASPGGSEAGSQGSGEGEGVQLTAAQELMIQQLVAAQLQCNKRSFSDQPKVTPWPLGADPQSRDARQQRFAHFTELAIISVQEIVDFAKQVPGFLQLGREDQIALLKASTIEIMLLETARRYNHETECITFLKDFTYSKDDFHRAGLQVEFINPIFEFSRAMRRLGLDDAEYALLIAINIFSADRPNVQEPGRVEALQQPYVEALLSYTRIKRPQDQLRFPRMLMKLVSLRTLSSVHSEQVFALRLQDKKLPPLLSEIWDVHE

HEK293 [4] = assay: cells; settings: Homo sapiens
HEK293 [5] = assay: cells; settings: Homo sapiens; remark: listed apart in the source

Chain of Beta-galactosidase (Q8VNN2 whole entry): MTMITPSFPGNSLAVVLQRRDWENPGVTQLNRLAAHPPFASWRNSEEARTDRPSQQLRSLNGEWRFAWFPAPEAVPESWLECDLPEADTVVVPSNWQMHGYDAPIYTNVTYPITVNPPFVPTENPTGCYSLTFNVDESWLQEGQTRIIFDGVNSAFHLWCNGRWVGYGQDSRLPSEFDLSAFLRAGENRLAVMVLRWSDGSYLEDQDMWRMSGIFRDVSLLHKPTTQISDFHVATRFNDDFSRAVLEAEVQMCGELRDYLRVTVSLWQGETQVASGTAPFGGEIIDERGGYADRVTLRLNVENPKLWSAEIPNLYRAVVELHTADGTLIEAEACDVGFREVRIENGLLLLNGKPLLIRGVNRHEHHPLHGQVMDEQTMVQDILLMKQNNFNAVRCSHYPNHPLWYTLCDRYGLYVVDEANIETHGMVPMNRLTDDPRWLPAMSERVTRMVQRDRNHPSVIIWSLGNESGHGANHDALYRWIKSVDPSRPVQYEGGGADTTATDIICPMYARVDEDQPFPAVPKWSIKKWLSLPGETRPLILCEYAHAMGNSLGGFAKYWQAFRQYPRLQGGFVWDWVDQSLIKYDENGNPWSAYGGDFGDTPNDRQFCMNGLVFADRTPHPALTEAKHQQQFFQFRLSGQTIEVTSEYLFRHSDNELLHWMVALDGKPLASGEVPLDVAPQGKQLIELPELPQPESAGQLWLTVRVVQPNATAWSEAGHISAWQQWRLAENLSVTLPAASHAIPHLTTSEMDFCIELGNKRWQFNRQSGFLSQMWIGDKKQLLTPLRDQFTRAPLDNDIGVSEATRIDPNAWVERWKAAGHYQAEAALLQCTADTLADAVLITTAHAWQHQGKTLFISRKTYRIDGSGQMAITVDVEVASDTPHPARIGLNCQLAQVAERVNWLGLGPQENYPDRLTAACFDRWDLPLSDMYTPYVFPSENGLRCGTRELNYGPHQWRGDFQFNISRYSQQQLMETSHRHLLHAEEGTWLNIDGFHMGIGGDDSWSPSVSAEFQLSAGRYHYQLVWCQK

SMILES: COc1cccc(/C=C/c2ccc3cccc(O)c3n2)c1
- EC50 (Beta-galactosidase): > 40 µM (inactive)
- IC50 [1]: 15.1 µM (active)
- AC50 [2]: 24.4 µM (active)
- EC50 [3]: > 67.5 µM (inactive)
- EC50 (HEK293 [4]): > 59.7 µM (inactive)
- EC50 (HEK293 [5]): > 0.0091 µM (active)
